According to patent US8530492B2, “Oligomer-protein tyrosine kinase inhibitor conjugates” (Nektar Therapeutics, priority 2009, dated 2013):

System: Caco-2 cells
Test: Caco-2 permeability (bi-directional; pH 7.4/pH 7.4)
Assay type: in vitro ADME, human
Conditions: Caco-2, 10 μM, 120 minutes
Description: Caco-2 cells are used as an in vitro model of the human intestinal epithelium and permit assessment of the intestinal permeability of potential drugs. Test compound is added to either the apical or basolateral side of a confluent monolayer of Caco-2 cells and permeability is measured by monitoring the appearance of the test compound on the opposite side of the membrane using LC-MS/MS. Apparent permeability (Papp) coefficients, efflux ratio for the test compound and recovery values were determined.
To measure the permeability of test compound in the apical to basolateral (A-B) and basolateral to apical (B-A) direction across Caco-2 cells.
Caco-2 cells obtained from the ATCC are used between passage numbers 40-60. Cells are seeded on to Millipore Multiscreen Caco-2 plates at 1×10^5 cells/cm^2. They are cultured for 20 days in DMEM and media is changed every two or three days. On day 20 the permeability study is performed.
On day 20, the monolayers are prepared by rinsing both basolateral and apical surfaces twice with HBSS at 37° C. Cells are then incubated with HBSS in both apical and basolateral compartments for 40 min to stabilize physiological parameters. HBSS is then removed from the apical compartment and replaced with test compound dosing solutions. […] The fluorescent integrity marker lucifer yellow is also included in the dosing solution. Analytical standards are made from dosing solutions. The apical compartment inserts are then placed into ‘companion’ plates containing fresh HBSS. For basolateral to apical (B-A) permeability determination the experiment is initiated by replacing buffer in the inserts then placing them in companion plates containing dosing solutions. At 120 minutes the companion plate is removed and apical and basolateral samples diluted for analysis by LC-MS/MS. Test compound permeability was assessed in duplicate. On each plate, compounds of known permeability characteristics were run as controls.
Test and control compounds were quantified by LC-MS/MS cassette analysis using a 5-point calibration with appropriate dilution of the samples. Cyprotex generic analytical conditions were used. The starting concentration (C0) and experimental recovery were calculated from both apical and basolateral compartment concentrations.
The integrity of the monolayers throughout the experiment was checked by monitoring lucifer yellow permeation using fluorimetric analysis. Lucifer yellow permeation is low if monolayers have not been damaged. […] If lucifer yellow Papp values are above QC limits in both replicate wells for a test compound, the compound was re-tested.
Data Analysis: The permeability coefficient for each compound (Papp) is calculated from the following equation:
[formula] wherein dQ/dt is the rate of permeation of the drug across the cells, C0 is the donor compartment concentration at time zero and A is the area of the cell monolayer. C0 is obtained from analysis of donor and receiver compartments at the end of the incubation period. It is assumed that all of the test compound measured after 120 minutes incubation was initially present in the donor compartment at 0 minutes. An efflux ratio (ER) is derived as follows:
Talinolol (a known P-gp substrate) is also included as a control compound to assess whether functional P-gp is present in the Caco-2 cell monolayer.

| Permeability (apparent permeability, Papp (A-B)) [×10⁻⁶ cm/s] | Structure (SMILES) |
| --- | --- |
| 0.04 ± 0.01 | COCCOCCOCCOCCOCCOCCOCCNCc1ccc(C(=O)Nc2ccc(C)c(Nc3nccc(-c4cccnc4)n3)c2)cc1 |
| 0.6 ± 0.07 | COCCOCCOCCNCc1ccc(C(=O)Nc2ccc(C)c(Nc3nccc(-c4cccnc4)n3)c2)cc1 [mPEG3-N-Imatinib] |
| 4 ± 0.8 | COCCOCCOCCN1CCN(Cc2ccc(C(=O)Nc3ccc(C)c(Nc4nccc(-c5cccnc5)n4)c3)cc2)CC1 [mPEG3-N′-Imatinib] |
| 0.05 ± 0.02 | COCCOCCOCCOCCOCCNCc1ccc(C(=O)Nc2ccc(C)c(Nc3nccc(-c4cccnc4)n3)c2)cc1 [mPEG5-N-Imatinib] |
| 1 ± 0.2 | COCCOCCOCCOCCOCCN1CCN(Cc2ccc(C(=O)Nc3ccc(C)c(Nc4nccc(-c5cccnc5)n4)c3)cc2)CC1 [mPEG5-N′-Imatinib] |
| 0.3 ± 0.01 | COCCOCCOCCOCCOCCOCCOCCN1CCN(Cc2ccc(C(=O)Nc3ccc(C)c(Nc4nccc(-c5cccnc5)n4)c3)cc2)CC1 [mPEG7-N′-Imatinib] |
| 0.01 ± 0.004 | COCCOCCOCCOCCOCCOCCOCCOCCOCCNCc1ccc(C(=O)Nc2ccc(C)c(Nc3nccc(-c4cccnc4)n3)c2)cc1 [mPEG9-N-Imatinib] |
| 0.05 ± 0.02 | COCCOCCOCCOCCOCCOCCOCCOCCOCCN1CCN(Cc2ccc(C(=O)Nc3ccc(C)c(Nc4nccc(-c5cccnc5)n4)c3)cc2)CC1 [mPEG9-N′-Imatinib] |
